Test results taken from patent publication US8039670B2, “Analogs of alpha galactosyceramide and uses thereof” (Ludwig Institute for Cancer Research, priority 2005, dated 2011).

Legend:
[1] = tested on: E.G7-OVA tumour cells; assay: Prophylactic challenge with E.G7-OVA tumour cells after co-injection with OVA; type: in vivo, C57BL/6 mice; details: injected with OVA, challenge 7 days later with 1×10^6 E.G7-OVA s.c.
Method: (A) C57BL/6 mice were co-injected with 1 μg α-GalCer or analog and 800 μg OVA. 6 days later blood samples taken from the tail vein were stained directly ex vivo with fluorescent […]-K^b tetramers and an anti-CD8 antibody and analyzed by flow cytometry. Data are shown as tetramer positive cells as a percentage of CD8^+ cells. (B) 7 days after injection, the mice were challenged in a prophylactic setting with 1×10^6 E.G7-OVA tumour cells s.c. and the size of the tumour monitored over subsequent days.

[2] = target: T1, human invariant Vα24^+/Vβ11^+ TCR binding to hCD1d-lipid complex (Homo sapiens, UniProt P15813); assay: Surface plasmon resonance (Biacore) of soluble iNKT TCR binding to hCD1d monomers loaded with analogs; details: for Kd: equilibrium binding, read-out: Kd of the TCR binding to the monomer
T1 construct: soluble human CD1d molecules; made in house
Method: Affinity and kinetics of iNKT TCR binding to hCD1d complexed with α-GalCer or OCH. Increasing concentrations from 0.4 μM to 194 μM (two-fold dilution) of iNKT TCR were injected for 5 seconds over the indicated hCD1d-GSL complexes. The binding responses of 5 concentrations are shown superimposed. The panels on the right show binding response at equilibrium.
The affinities of a soluble NKT cell TCR for human CD1d molecules refolded with different analogs of α-GalCer were measured. Equilibrium binding and kinetic measurements respectively were made for α-GalCer (A and B), threitolceramide (C and D), 4S-threitolceramide (E and F), 4R-threitolceramide (G and H). The Kd values (μM) were calculated from equilibrium binding. The Kon values shown were calculated from Koff and Kd.
We then assessed whether the length of the acyl and sphingosine chains could affect the affinity of iNKT TCR binding to glycolipid-CD1d complex. We refolded Vα24 and Vβ11 chains of the iNKT TCR as previously described (Gadola, Koch et al, J Exp Med, 2006, 203; 699-710) and used the purified and refolded iNKT TCR in surface plasmon resonance studies against immobilized biotinylated CD1d monomers loaded with either α-GalCer or OCH.
To characterize the affinity of analogs of α-GalCer, biotinylated hCD1d monomers were generated using previously described protocols (Karadimitris, Gadola et al, Proc Natl Acad Sci USA, 2001, 98; 3294-8) bound to the different analogs. Surface plasmon resonance (Biacore) analysis was performed using a soluble disulphide-linked human invariant Vα24^+/Vβ11^+ TCR (Gadola, Koch et al, J Exp Med, 2006, 203; 699-710) to measure the equilibrium dissociation constants (Kd) of binding of the TCR to different monomers (FIG. 3).

[3] = tested on: OVA specific IgG antibodies; assay: Example D: OVA specific IgG antibodies in serum of immunized mice (ELISA); type: in vivo; details: ten days following immunization
Method: OVA protein coated ELISA plates, were prepared, using well known methods. Then, blood samples were taken, ten days following immunization, and serum was prepared.
The samples were taken from mice that had been immunized with OVA only, OVA and Compound 1, arabinitol ceramide, OVA and αGal-Cer, or OVA and Compound 2, glycerol ceramide. Additionally, mice were immunized with each of these schedules with MPL added. Serum IgG titers were measured by adding serial dilutions of mouse serum were detected using horseradish peroxidase (HRP) conjugated α-mouse IgG.

[4] = tested on: p40 form of IL-12; assay: Example A: IL-12 p40 ELISA as indication of DC stimulation; type: cell-based, human
[5] = tested on: IL-4 and IFN-γ; assay: Serum cytokines after i.v. injection into mice (ELISA); type: in vivo, C57BL/6 mice; details: for cytokine release in serum (IL-4, IFN-γ, IL-12p40/70): wild type mice, 1 μg i.v., 2, 6 and 18-24 h
Method: C57BL/6 or iNKT^−/− mice were injected i.v. with 1 μg of vehicle, α-GalCer, analog or 25 μg MPL. Twenty hours after injection splenocytes were stained with antibodies against CD11c, B220 and CD86 and analyzed by flow cytometry. (A) Maturation was assessed by the upregulation of CD86 at the cell surface, gating on DC (CD11c^+). Mean fluorescence intensity for each histogram is indicated. These are representative profiles of two independent experiments. 2, 6 and 18-24 h after injection as described, the mice were bled and the serum tested with ELISA for the presence of (B) IL-4 and (C) IFN-γ released in response to the analog.
Stimulation of iNKT cells by α-GalCer in the context of CD1d rapidly induces release of significant levels of a number of cytokines including IFN-γ and IL-4 (Burdin, Brossay et al, J Immunol, 1998, 161; 3271-81), IL-3 and GM-CSF (Leite-de-Moraes, Lisbonne et al, Eur J Immunol, 2002, 32; 1897-904) with other downstream cell-types including DC (Kitamura, Iwakabe et al, J Exp Med, 1999, 189; 1121-8) and NK cells (Carnaud, Lee et al, J Immunol, 1999, 163; 4647-50) being activated.

[6] = tested on: Melan A-specific CD8^+ T cells; assay: Expansion of Melan-A26-35 specific CD8+ T cells in human PBMC/PBL cultures (tetramer); type: cell-based; details: for stimulation of antigen specific CTL responses in vitro: Example B, day 10, compared with αGal-Cer; for expansion of Melan-A26-35 specific T cells: human PBMC/PBL, FIG. 8
Method: Flow cytometry of day 10-15 cultures of PBMCs co-cultured with autologous irradiated APCs, pulsed with Melan-A26-35 peptide were stained with the tetrameter and anti-CD8^+-FITC.
In these experiments, T cell expansion was measured, by pulsing human DCs from PBLs with 100 nM of the known, immunogenic peptide MelanA26-35, […]. The peptide was added to the DCs together with syngeneic PBLs from the same donor. To detail these experiments more fully, samples of DCs were irradiated with 3000 rads followed by a 3 hour pulse with the peptide, in serum free medium.
The cells were then washed thoroughly and incubated with autologous, PBLs, at a 1:10 ratio, in RPMI 1640/5% human serum. Recombinant human IL-2 was added at 10 U/ml from day 4 to day 7. At day 10, following the addition of the PBLs, cells were analyzed. Cultured cells were stained with anti-CD8 and A2/MelanA25-35 tetramer. The percentage of MelanA specific CD8 T cells out of total CD8 positive cells was measured by FACS analysis.

CCCCCCCCCCCCCCCCCCCCCCCCCC(=O)N[C@@H](CO[C@H]1OC(CO)[C@H](O)C(O)C1O)[C@H](O)[C@H](O)CCCCCCCCCCCCCC (stereo partly drawn) [α-GalCer, α galactosylceramide, reference compound]
tumour growth [1]: little or no tumour growth | Kd [2]: 1.29 µM | koff ([2]; kinetic measurement, read-out: rate of dissociation (Koff) between the TCR and the monomer): 0.37 s⁻¹ | OVA specific antibody response, adjuvant effect compared with MPL [3]: more effective as adjuvants than MPL

CCCCCCCCCCCCCCCCCCCCCCCCCC(=O)N[C@@H](COC[C@@H](O)CO)[C@H](O)[C@H](O)CCCCCCCCCCCCCC [Compound 2, Glycerol Ceramide]
IL-12 potency, fold less potent than Compound 3 [4]: approximately 1000 fold | cytokine release in serum (IL-4, IFN-γ, IL-12p40/70) [5]: did not induce any detectable cytokine release | OVA specific antibody response, adjuvant effect compared with MPL [3]: less effective than MPL whilst still producing OVA specific antibodies | stimulation of antigen specific CTL responses in vitro [6]: more potent stimulators of antigen specific CTL responses, in vitro, than αGal-Cer

CCCCCCCCCCCCCCCCCCCCCCCCCC(=O)N[C@@H](COC[C@H](O)[C@@H](O)CO)[C@H](O)[C@H](O)CCCCCCCCCCCCCC [Compound 3, Threitol Ceramide]
tumour growth [1]: little or no tumour growth | IL-12 potency relative to αGal-Cer [4]: approximately 50% | skewing of cytokine response to Th2 ([5]; compared with OCH): Neither compound showed a skewed Th2 cytokine response | potency of cytokine induction compared with α-GalCer ([5]; equivalent doses): less potent than α-GalCer at equivalent doses | cytokine release in serum (IL-4, IFN-γ, IL-12p40/70) [5]: detected in the serum with a similar time-course to that seen with α-GalCer | Kd [2]: 5.78 µM | rate of dissociation (Koff) between the TCR and the monomer ([2]; kinetic measurement): 1.04 s⁻¹ | stimulation of antigen specific CTL responses in vitro [6]: more potent stimulators of antigen specific CTL responses, in vitro, than αGal-Cer | expansion of Melan-A26-35 specific T cells ([6]; listed as threitol-ceramide): superior than glycerol-ceramide | expansion of Melan-A26-35 specific T cells ([6]; listed as threitolceramide): at least as effective as with DC pulsed with α-GalCer
